Experimental findings from patent US12540164B2, “Peptides for treatment and prevention of nonalcoholic fatty liver disease and fibrosis” (UNIVERSITE DE STRASBOURG, priority 2017, dated 2026) are described below.

A short description of assay [1]: STAM model of non-alcoholic steatohepatitis: Sirius red staining, fibrosis area. The class given is in vivo. Particulars: STAM NASH mice. As to the method:
NASH was induced in 12 male mice by a single subcutaneous injection of 200 μg streptozotocin (STZ, Sigma-Aldrich, USA) solution 2 days after birth and feeding with high fat diet (HFD, 57 kcal % fat, Cat #HFD32, CLEA Japan, Inc., Japan) after 4 weeks of age. The peptide was administered subcutaneously in the adipose tissue in a volume of […] per mouse. The peptide was administered at a dose of 25 microgram (μg) per mouse once weekly. To visualize collagen deposition, Bouin's fixed liver sections were stained using picro-Sirius red solution (Waldeck, Germany). For quantitative analysis of fibrosis area, bright field images of Sirius red-stained sections were captured around the central vein using a digital camera (DFC295; Leica, Germany) at 200-fold magnification, and the positive areas in 5 fields/section were measured using ImageJ software (National Institute of Health, USA). Six NASH mice were subcutaneously in the adipose tissue administered vehicle supplemented with ADPIF peptide at a dose of […] per mouse once weekly from 4 to 9 weeks of age.

Assay [2] has as its system Collagen IV. The assay can be described thus: Immunostaining of liver cryosections for Collagen IV (DIO-NASH). Format: in vivo. As to conditions: DIO-NASH mice, 3 months after injection in subcutaneous adipose tissue; vs untreated. The method, then:
For immunofluorescence experiments, liver and kidneys freshly sampled were included in Optimal Cutting Temperature Compound™ (OCT™, Catalog #4583, Tissue-Tek® OCT™, Sakura® Finetek, Torrance, California, USA) and cryosections of 7 μm were cut with Cryostat Leica CM1950. Cryosections were washed with 1×PBS and fixated in 4% formaldehyde solution for 15 min (Catalog #: F555-4L, Sigma-Aldrich, Saint-Louis, Missouri, USA) and then permeabilized with 0.02% SDS-PBS for 30 seconds. Blocking solution was 5%-Bovine Serum Albumin (BSA) in PBS. Primary antibodies were diluted in blocking solution and incubated overnight and indicated secondary antibodies were diluted in PBS for 30 minutes. Nuclei were counterstained with Hoechst (Catalog #: D1306, Invitrogen, Carlsbad, California, USA). Slides were then mounted with Vectashield® Mounting Medium (Catalog #: H-1000, Vector Laboratories, Burlingame, California, USA). Images were acquired and analyzed with Zeiss Imager.Z2 microscope equipped with either Zeiss AxioVision or Zeiss ZEN 2012 software (Carl Zeiss Inc., Oberkochen, Germany). Anti-Collagen IV antibody, ab6586 from Abcam and LOXL2 antibody, GTX105085 from GeneTex were used.

“Also recorded” adds a separate entry of the source. Ends that are not written are not given here.

For “VECTTREKEVLASLDKAAFLTQLHS (not fully specified (bridges)) [ADPIF, R and S carry the stapling, preferably 2-(7-octenyl)arginine and 2-(4-pentenyl)serine]”, the “Sirius red-positive area (mean ± SD)” value in assay [1] (25 μg per mouse SC once weekly 4-9 wks of age, sacrifice 9 wks, n = 6) came to 0.62 ± 0.17%. Besides, the “fibrosis area (Sirius red-positive area) compared with the Vehicle group” value in assay [1] (25 μg per mouse SC once weekly 4-9 wks, Student's t-test) is given as “significant decrease”. Also, the “Collagen IV expression in liver (immunostaining)” value in assay [2] was “effective in preventing the progression of fibrotic markers; also recorded: reduced”.
